Results taken from ChEMBL document CHEMBL1135329, “DNA binding ligands with excellent antibiotic potency against drug-resistant gram-positive bacteria” (Bioorg Med Chem Lett, 2002).
Converted amounts (≈) assume the structure as drawn.

What was measured:
Assay type in all cases: functional
Enterococcus faecalis [1] = test: Antimicrobial activity was determined against vancomycin-susceptible Enterococcus faecalis (VSEF 29212)
Enterococcus faecalis [2] = test: Antimicrobial activity was determined against vancomycin-resistant Enterococcus faecalis (VREF 51559)
Streptococcus pneumoniae [3] = test: Antimicrobial activity was determined against penicillin-resistant Streptococcus pneumoniae (PRSP 51422)
Staphylococcus aureus [4] = test: Antimicrobial activity was determined against methicillin-susceptible S. aureus(MSSA 29213)
Escherichia coli = test: Binding to the sequence 5'-ACAATTAA-3', a site proximal to the […] RNA polymerase subunit binding site within the Escherichia coli Trc promoter.; conditions: read-out: Kd app
Staphylococcus aureus [5] = test: Antimicrobial activity was determined against methicillin-resistant Staphylococcus aureus (MRSA 27660)
Streptococcus pneumoniae [6] = test: Antimicrobial activity was determined against penicillin-susceptible Streptococcus pneumoniae (PSSP 49619)
Candida albicans = test: Antifungal activity was determined against Candida albicans

| SMILES | MIC (Enterococcus faecalis [1]) [µg/mL] | MIC (Enterococcus faecalis [2]) [µg/mL] | MIC (Streptococcus pneumoniae [3]) [µg/mL] | MIC (Staphylococcus aureus [4]) [µg/mL] | Kd (Escherichia coli) [nM] | MIC (Staphylococcus aureus [5]) [µg/mL] | MIC (Streptococcus pneumoniae [6]) [µg/mL] | MIC (Candida albicans) [µg/mL] |
| --- | --- | --- | --- | --- | --- | --- | --- | --- |
| Cn1cc(NC(=O)c2cc(NC(=O)c3cc(NC(=O)c4nsc(N5CCCCC5)c4Cl)cn3C)cn2C)cc1C(=O)NCCN1CCOCC1 | 1 (≈ 1.38 µM) | 1 (≈ 1.38 µM) | 0.062 (≈ 0.0855 µM) | 2 (≈ 2.76 µM) | 4 | 1 (≈ 1.38 µM) | 0.125 (≈ 0.172 µM) | > 32 |
| CN(C)CCCNC(=O)c1cc(NC(=O)c2cc(NC(=O)c3cc(NC(=O)c4nsc(NCCCCN)c4Cl)cn3C)cn2C)cn1C | 1 (≈ 1.43 µM) | 1 (≈ 1.43 µM) | 1 (≈ 1.43 µM) | 2 (≈ 2.86 µM) | 1.04 | 2 (≈ 2.86 µM) | 0.5 (≈ 0.714 µM) | 8 (≈ 11.4 µM) |
| Cn1cc(NC(=O)c2cc(NC(=O)c3cc(NC(=O)c4nsc(NCCc5ccccn5)c4Cl)cn3C)cn2C)cc1C(=O)NCCN1CCOCC1 | 0.5 (≈ 0.656 µM) | 4 (≈ 5.25 µM) | 0.5 (≈ 0.656 µM) | 1 (≈ 1.31 µM) | 0.83 | 2 (≈ 2.62 µM) | 0.125 (≈ 0.164 µM) | > 32 |
| Cn1cc(NC(=O)c2cc(NC(=O)c3cc(NC(=O)c4nsc(NCCN5CCOCC5)c4Cl)cn3C)cn2C)cc1C(=O)NCCc1ccncc1 | 0.062 (≈ 0.0813 µM) | 0.25 (≈ 0.328 µM) | 0.5 (≈ 0.656 µM) | 0.125 (≈ 0.164 µM) | 4.35 | 0.5 (≈ 0.656 µM) | 0.062 (≈ 0.0813 µM) | > 32 |
| Cn1cc(NC(=O)c2cc(NC(=O)c3cc(NC(=O)c4nsc(NCCN5CCOCC5)c4Cl)cn3C)cn2C)cc1C(=O)NCCN1CCOCC1 | 0.25 (≈ 0.325 µM) | 2 (≈ 2.6 µM) | 0.25 (≈ 0.325 µM) | 1 (≈ 1.3 µM) | 9.09 | 4 (≈ 5.19 µM) | 0.062 (≈ 0.0805 µM) | > 32 |
| Cn1cc(NC(=O)c2cc(NC(=O)c3cc(NC(=O)c4nsc(NCCCCN)c4Cl)cn3C)cn2C)cc1C(=O)NCCCNC1CCCCC1 | 0.5 (≈ 0.663 µM) | 2 (≈ 2.65 µM) | 4 (≈ 5.3 µM) | 0.5 (≈ 0.663 µM) | 0.43 | 1 (≈ 1.33 µM) | 1 (≈ 1.33 µM) | 32 (≈ 42.4 µM) |
| Cn1cc(NC(=O)c2cc(NC(=O)c3cc(NC(=O)c4nsc(NCCN5CCOCC5)c4Cl)cn3C)cn2C)cc1C(=O)NCC1CC1 | 0.5 (≈ 0.703 µM) | 1 (≈ 1.41 µM) | 0.5 (≈ 0.703 µM) | 16 (≈ 22.5 µM) | 208 | 8 (≈ 11.2 µM) | 1 (≈ 1.41 µM) | > 32 |
| CN(C)CCCNC(=O)c1cc(NC(=O)c2cc(NC(=O)c3cc(NC(=O)c4nsc(NCCCN)c4Cl)cn3C)cn2C)cn1C | 1 (≈ 1.46 µM) | 2 (≈ 2.91 µM) | 4 (≈ 5.83 µM) | 2 (≈ 2.91 µM) | 1.74 | 1 (≈ 1.46 µM) | 0.5 (≈ 0.729 µM) | 8 (≈ 11.7 µM) |
| Cn1cc(NC(=O)c2cc(NC(=O)c3cc(NC(=O)c4nsc(NCCc5ccncc5)c4Cl)cn3C)cn2C)cc1C(=O)NCCN1CCOCC1 | 0.25 (≈ 0.328 µM) | 2 (≈ 2.62 µM) | 0.25 (≈ 0.328 µM) | 1 (≈ 1.31 µM) | 0.29 | 1 (≈ 1.31 µM) | 0.062 (≈ 0.0813 µM) | > 32 |
| Cn1cc(NC(=O)c2cc(NC(=O)c3cc(NC(=O)c4nsc(NCC5CC5)c4Cl)cn3C)cn2C)cc1C(=O)NCCN1CCOCC1 | 0.25 (≈ 0.351 µM) | 1 (≈ 1.41 µM) | 0.125 (≈ 0.176 µM) | 0.5 (≈ 0.703 µM) | 1.01 | 1 (≈ 1.41 µM) | 0.125 (≈ 0.176 µM) | > 32 |
| Cn1cc(NC(=O)c2cc(NC(=O)c3cc(NC(=O)c4nsc(NCCCO)c4Cl)cn3C)cn2C)cc1C(=O)NCCN1CCOCC1 | 0.125 (≈ 0.175 µM) | 0.5 (≈ 0.699 µM) | 0.031 (≈ 0.0433 µM) | 1 (≈ 1.4 µM) | 1.03 | 2 (≈ 2.8 µM) | 0.5 (≈ 0.699 µM) | > 32 |
| Cn1cc(NC(=O)c2cc(NC(=O)c3cc(NC(=O)c4nsc(NCCCNC5CCCCC5)c4Cl)cn3C)cn2C)cc1C(=O)NCCCNC1CCCCC1 | 2 (≈ 2.43 µM) | 2 (≈ 2.43 µM) | 0.5 (≈ 0.608 µM) | 1 (≈ 1.22 µM) | 1.19 | 1 (≈ 1.22 µM) | 2 (≈ 2.43 µM) | 16 (≈ 19.5 µM) |
| CCOCCCNC(=O)c1cc(NC(=O)c2cc(NC(=O)c3cc(NC(=O)c4nsc(NCCN5CCOCC5)c4Cl)cn3C)cn2C)cn1C | 16 (≈ 21.5 µM) | 4 (≈ 5.38 µM) | 1 (≈ 1.35 µM) | 16 (≈ 21.5 µM) | 83.3 | 16 (≈ 21.5 µM) | 0.5 (≈ 0.673 µM) | > 32 |
| CN(C)CCCNC(=O)c1cc(NC(=O)c2cc(NC(=O)c3cc(NC(=O)c4nsc(NCCCCCCCN)c4Cl)cn3C)cn2C)cn1C | 8 (≈ 10.8 µM) | 1 (≈ 1.35 µM) | 16 (≈ 21.6 µM) | 32 (≈ 43.1 µM) | 1.3 | 32 (≈ 43.1 µM) | 32 (≈ 43.1 µM) | > 32 |
| CCOCCCNc1snc(C(=O)Nc2cc(C(=O)Nc3cc(C(=O)Nc4cc(C(=O)NCCN5CCOCC5)n(C)c4)n(C)c3)n(C)c2)c1Cl | 0.25 (≈ 0.336 µM) | 2 (≈ 2.69 µM) | 0.125 (≈ 0.168 µM) | 1 (≈ 1.35 µM) | 1.34 | 2 (≈ 2.69 µM) | 0.25 (≈ 0.336 µM) | > 32 |
| CN(C)CCCCNC(=O)c1cc(NC(=O)c2cc(NC(=O)c3cc(NC(=O)c4nsc(NCCCN)c4Cl)cn3C)cn2C)cn1C | 0.125 (≈ 0.179 µM) | 0.25 (≈ 0.357 µM) | 0.125 (≈ 0.179 µM) | 0.5 (≈ 0.714 µM) | 0.53 | 0.25 (≈ 0.357 µM) | 0.064 (≈ 0.0914 µM) | 0.25 (≈ 0.357 µM) |
| Cn1cc(NC(=O)c2cc(NC(=O)c3cc(NC(=O)c4nsc(NCCCNC5CCCCC5)c4Cl)cn3C)cn2C)cc1C(=O)NCCCCN | 2 (≈ 2.65 µM) | 16 (≈ 21.2 µM) | 16 (≈ 21.2 µM) | 2 (≈ 2.65 µM) | 2 | 2 (≈ 2.65 µM) | 1 (≈ 1.33 µM) | 4 (≈ 5.3 µM) |
| Cn1cc(NC(=O)c2cc(NC(=O)c3cc(NC(=O)c4nsc(NCCCNC5CCCCC5)c4Cl)cn3C)cn2C)cc1C(=O)NCCN1CCOCC1 | 2 (≈ 2.51 µM) | 16 (≈ 20.1 µM) | 0.25 (≈ 0.314 µM) | 2 (≈ 2.51 µM) | 0.59 | 8 (≈ 10 µM) | 0.062 (≈ 0.0779 µM) | 16 (≈ 20.1 µM) |
| Cn1cc(NC(=O)c2cc(NC(=O)c3cc(NC(=O)c4nsc(NCCN5CCOCC5)c4Cl)cn3C)cn2C)cc1C(=O)NCCCO | 32 (≈ 44.7 µM) | > 32 | 1 (≈ 1.4 µM) | > 32 | 32.1 |  | 32 (≈ 44.7 µM) | > 32 |
| Cn1cc(NC(=O)c2cc(NC(=O)c3cc(NC(=O)c4nsc(NCCCCN)c4Cl)cn3C)cn2C)cc1C(=O)NCCN1CCOCC1 | 4 (≈ 5.49 µM) | 16 (≈ 22 µM) | 0.5 (≈ 0.687 µM) | 4 (≈ 5.49 µM) | 0.37 | 4 (≈ 5.49 µM) | 0.5 (≈ 0.687 µM) | 8 (≈ 11 µM) |
